{"source": "patent US20110010099A1", "about": "“Correlation Analysis of Biological Systems” (priority 2005, published 2011)", "type_in_all_cases": "in vivo", "key": {"[1]": {"test_system": "liver mRNA transcripts (Enzyme_ABC, Enzyme_DEF)", "assay": "Liver mRNA transcript profiling (Affymetrix U34A) in rat hepatotoxicity study", "conditions": "Group 3 drug-administered animals relative to Group 1 control animals", "procedure": "Affymetrix microarray processing was carried out on liver tissue samples from 35 animals distributed among the seven experimental groups.\nAn additive effect on the log-transformed signal related to hybridization day was modeled, and the triplicate control samples were used to estimate the effect."}, "[2]": {"test_system": "liver of male Wistar Hannover rats", "assay": "Rat hepatotoxicity study: liver morphology / histopathology for steatosis", "conditions": "7 days dosing, sacrifice day 8, male Wistar Hannover rats", "source_text": "The primary objective of the study was to discover biomarkers in plasma of hepatic steatotic processes. In the course of this study, multiple molecular profiling techniques and data analysis methodologies were employed. A corollary objective of this study was to elucidate mechanisms underlying hepatic steatosis induced by the drug.\nThe study was designed to generate tissue and body fluid samples from groups of animals exposed for varying times at different doses to a drug previously shown to produce toxic steatosis of the liver.\n(§1) Five Wistar Hannover male rats were used per group. Three groups were dosed for 7 days (control, low and intermediate dose) and urine collected twice daily for up to 7 days. One group was dosed once with a high dose of the drug and kept in a metabolism cage for a recovery study. In addition, three groups (control, intermediate and high dose) were dosed once and sacrificed after 24 hours. Plasma and liver tissue samples were collected from all groups at necropsy. Clinical pathology was performed and histopathological evaluations were provided.\nThe study was designed to generate tissue and body fluid samples from groups of animals treated for varying times and with different doses of ABC123. The different time points and dosing schedules were intended to allow the identification of biomarkers of steatosis over different times and doses."}, "[3]": {"test_system": "plasma analytes of male Wistar Hannover rats", "assay": "Plasma GC-MS metabolite profiling in rat hepatotoxicity study", "conditions": "Group 3 drug-administered animals compared to Group 1 animals", "description": "as §1\nLiver and plasma lipid LC-MS. Samples (liver or plasma) were treated with isopropanol to precipitate the protein and to extract the lipid metabolites. […] Resulting mass spectra were peak detected with IMPRESS (proprietary software, BG Medicine, Inc., Waltham, Mass.) and aligned/normalized with Equest and WinLin (proprietary software, BG Medicine, Inc., Waltham, Mass.). […] Metabolites detected with this approach include polar and non-polar lipids. […] The samples were detected with electron impact ionization on an Agilent 5973 MSD. […] Metabolites detected with this method include: alcohols, aldehydes and cyclohexanols, amino acids, acyl amino acids, succinylamino acids, amines, aromatic compounds, fatty acids (>C6), organic acids, phospho-organic acids, sugars, sugar acids, sugar amines, and sugar phosphates. […]"}, "[4]": {"test_system": "Enzyme_ABC in liver tissue", "assay": "Liver LC-MS proteomics profiling in rat hepatotoxicity study", "conditions": "Group 3 drug-administered animals relative to Group 1 control animals", "description": "as §1\n• Sample: 100 mg of liver dissected from the thawed liver sample was cut into four 25 mg pieces and homogenized. • Clarification/Fractionation: Unbroken cells, nuclei and extracellular debris were removed using low-G centrifugation, and the resulting clarified homogenate was then subjected to membrane/cytosol fractionation using high-speed ultracentrifugation. • Protein Fractionation of Cytosol: The total cytosolic protein was subjected to C4 reversed-phase column chromatography to isolate 3 fractions for proteomic analysis. […] The resulting membrane tryptic peptide fraction was dried in vacuo. • Profiling of Peptides: Cytosolic peptides from the three acidic peptide sets and the membrane tryptic peptide fraction were quantitatively analyzed for differential expression via reversed-phase LC-ESI-MS. […]"}}, "data": [{"smiles": "Cn1c(=O)c2c(ncn2CC2OCCO2)n(C)c1=O", "note": "[ABC123]", "values": [{"measurement": "reduction in abundance of Enzyme_ABC in liver tissue (mRNA transcript platform)", "setting": "[1]", "value": "approximately 1.7 fold"}, {"measurement": "steatosis upon examination of the livers using standard morphology techniques", "setting": "[2]; Group 2 (lowest dose): 20 mg/kg/day", "value": "no evidence of steatosis"}, {"measurement": "steatosis upon examination of the livers using standard morphology techniques", "setting": "[2]; Group 3: 200 mg/kg/day", "value": "morphological steatosis"}, {"measurement": "increase in abundance of Metabolite_XYZ in plasma (plasma GC-MS platform)", "setting": "[3]", "value": "approximately 1.4 fold"}, {"measurement": "reduction in abundance of Enzyme_ABC in liver tissue (proteomics platform)", "setting": "[4]", "value": "approximately 2 fold"}]}]}
